The values that follow come from patent US20150252022A1, “RETINOIC ACID RECEPTOR-RELATED ORPHAN RECEPTOR MODULATORS AND USES THEREOF” (INNOV17 LLC, priority 2014, published 2015).

What all share (assay type): cell-based
Holding throughout (conditions): 72 h; human CD4+ T cells under TH17-polarizing conditions, 3 days, supernatant ELISA
Background: ELISA stands for enzyme-linked immunosorbent assay.

The test system of one test is IL-21. Nature of the test: Human TH17 Cytokine Inhibition as measured by ELISA (IL-21). On the procedure: (§1) Peripheral blood mononuclear cells (PBMCs) were sourced from freshly prepared leukocyte enriched plasma (buffy coat) from healthy donors (New York Blood Center). PBMCs were isolated by density gradient centrifugation using Ficoll-Paque™ PLUS (GE Healthcare). Human CD4+ T cells were seeded into 96-well plates (5×10^4 cells/well) and activated with plate-bound anti-human (h)-CD3 antibody and soluble h-aCD28 (both at 1 ug/ml; eBioscience) and differentiated into TH17 cells with 20 ng/mL h-IL-6, 5 ng/mL h-TGF-β1, 10 ng/mL h-IL-23 (eBioscience) and 10 ng/mL IL-1β (Miltenyi Biotec) in serum-free TexMACS Medium (Miltenyi Biotec) supplemented with 1% Penicillin/Streptomycin (Lonza) for 3 days. CD4+ T cells propagated under TH17-polarizing conditions were cultured in the presence or absence of various concentrations of compounds with a final concentration of 0.1% DMSO. Supernatants were collected and stored at −20° C. until assayed for IL-17A, IL-17F and IL-21 levels by “Ready-Set-Go” ELISA kits (eBioscience) as per manufacturer's instructions. Endpoint absorbance was read at 450 nm using a microplate reader (Perkin Elmer).

The subject of another test is IL-17A. The experiment in a line: Human TH17 Cytokine Inhibition as measured by ELISA (IL-17A). On the procedure:
as §1

The next test deals with IL-17F. Nature of the test: Human TH17 Cytokine Inhibition as measured by ELISA (IL-17F). On the procedure: as §1

Turning to `O=C(C1CCCCC1)N1CCC(CN2CCc3cc(-c4cn[nH]c4)ccc32)CC1` [Example 42, (4-((5-(1H-pyrazol-4-yl)indolin-1-yl)methyl)piperidin-1-yl)(cyclohexyl)methanone], the IC50 in the test with IL-21, with IL-17A and in the test on IL-17F was less than 10 µM in each case.

In the case of `O=C(CC1CCCCC1)N1CCC(CN2CCc3cc(-c4cn[nH]c4)ccc32)CC1` [Example 43, 1-(4-((5-(1H-pyrazol-4-yl)indolin-1-yl)methyl)piperidin-1-yl)-2-cyclohexylethanone], the concentration for half-maximal inhibition (IC50) in the test with IL-21, in the test on IL-17A and in the test with IL-17F was less than 10 µM in each case.

`CC(C)CC(=O)N1CCC(CN2CCc3cc(-c4cn[nH]c4)ccc32)CC1` [Example 44, 1-(4-((5-(1H-pyrazol-4-yl)indolin-1-yl)methyl)piperidin-1-yl)-3-methylbutan-1-one]: the IC50 (in general, the concentration that inhibits the measured activity by half) was more than 10 µM with IL-21, less than 10 µM with IL-17A and less than 10 µM in the test on IL-17F.

Regarding `CC(C)C(=O)N1CCC(CN2CCc3cc(-c4cn[nH]c4)ccc32)CC1` [Example 45, 1-(4-((5-(1H-pyrazol-4-yl)indolin-1-yl)methyl)piperidin-1-yl)-2-methylpropan-1-one], the IC50 with IL-21, with IL-17A and in the test with IL-17F was more than 10 µM in each case.

As for `O=C(c1ccccc1)N1CCCC(CN2CCc3cc(-c4cn[nH]c4)ccc32)CC1` (stereo not drawn) [Example 54, (4-((5-(1H-pyrazol-4-yl)indolin-1-yl)methyl)azepan-1-yl)(phenyl)methanone], the IC50 with IL-21, in the test on IL-17A and in the test on IL-17F was less than 10 µM throughout.

Consider `O=C(Cc1ccccc1)N1CCCC(CN2CCc3cc(-c4cn[nH]c4)ccc32)CC1` (stereo not drawn) [Example 55, 1-(4-((5-(1H-pyrazol-4-yl)indolin-1-yl)methyl)azepan-1-yl)-2-phenylethanone], for which the IC50 in the test with IL-21, in the test on IL-17A and in the test on IL-17F was less than 10 µM throughout.

For `O=C(CCc1ccccc1)N1CCCC(CN2CCc3cc(-c4cn[nH]c4)ccc32)CC1` (stereo not drawn) [Example 56, 1-(4-((5-(1H-pyrazol-4-yl)indolin-1-yl)methyl)azepan-1-yl)-3-phenylpropan-1-one], the IC50 in the test on IL-21, in the test on IL-17A and in the test on IL-17F was less than 10 µM throughout.

As for `O=C(CC1CCCCC1)N1CCCC(CN2CCc3cc(-c4cn[nH]c4)ccc32)CC1` (stereo not drawn) [Example 57, 1-(4-((5-(1H-pyrazol-4-yl)indolin-1-yl)methyl)azepan-1-yl)-2-cyclohexylethanone], the IC50 in the test on IL-21, with IL-17A and with IL-17F was less than 10 µM each time.

As to `O=C(C1CCCCC1)N1CCCC(Cn2ccc3cc(-c4cn[nH]c4)ccc32)CC1` (stereo not drawn) [Example 58, (4-((5-(1H-pyrazol-4-yl)-1H-indol-1-yl)methyl)azepan-1-yl)(cyclohexyl)methanone], the IC50 with IL-21, with IL-17A and in the test on IL-17F was less than 10 µM throughout.

For the compound `CC(C)CC(=O)N1CCCC(Cn2ccc3cc(-c4cn[nH]c4)ccc32)CC1` (stereo not drawn) [Example 59, 1-(4-((5-(1H-pyrazol-4-yl)-1H-indol-1-yl)methyl)azepan-1-yl)-3-methylbutan-1-one], the values for the IC50 in the test on IL-21, in the test on IL-17A and in the test on IL-17F were more than 10 µM, less than 10 µM and less than 10 µM, respectively.

Turning to `CC(C)C(=O)N1CCCC(Cn2ccc3cc(-c4cn[nH]c4)ccc32)CC1` (stereo not drawn) [Example 60, 1-(4-((5-(1H-pyrazol-4-yl)-1H-indol-1-yl)methyl)azepan-1-yl)-2-methylpropan-1-one], the concentration for half-maximal inhibition (IC50) in the test on IL-21 was more than 10 µM; with IL-17A, less than 10 µM; in the test with IL-17F it was less than 10 µM.

As to `O=C(OCc1ccccc1)N1CCC(CN2CCc3cc(-c4cn[nH]c4)ccc32)C1` (stereo not drawn) [Example 62, benzyl 3-((5-(1H-pyrazol-4-yl)indolin-1-yl)methyl)pyrrolidine-1-carboxylate], the IC50 is more than 10 µM in the test on IL-21, less than 10 µM in the test on IL-17A and less than 10 µM with IL-17F.

Regarding `O=C(NCc1ccccc1)N1CCC(CN2CCc3cc(-c4cn[nH]c4)ccc32)C1` (stereo not drawn) [Example 65, 3-((5-(1H-pyrazol-4-yl)indolin-1-yl)methyl)-N-benzylpyrrolidine-1-carboxamide], the IC50 with IL-21, in the test with IL-17A and with IL-17F was less than 10 µM in each case.

`CC(C)CNC(=O)N1CCC(CN2CCc3cc(-c4cn[nH]c4)ccc32)C1` (stereo not drawn) [Example 67, 3-((5-(1H-pyrazol-4-yl)indolin-1-yl)methyl)-N-isobutylpyrrolidine-1-carboxamide]: the 50% inhibitory concentration (IC50) with IL-21, in the test with IL-17A and with IL-17F was less than 10 µM each time.

Consider `CC(C)COC(=O)N1CCC(CN2CCc3cc(-c4cn[nH]c4)ccc32)C1` (stereo not drawn) [Example 69, isobutyl 3-((5-(1H-pyrazol-4-yl)indolin-1-yl)methyl)pyrrolidine-1-carboxylate], for which the IC50 in the test with IL-21, in the test with IL-17A and with IL-17F was less than 10 µM each time.

Consider `O=C(OCc1ccccc1)N1CCC(CN2CCc3cc(-c4cn[nH]c4)ccc32)CC1` [Example 70, benzyl 4-((5-(1H-pyrazol-4-yl)indolin-1-yl)methyl)piperidine-1-carboxylate], for which the IC50 in the test with IL-21, in the test with IL-17A and in the test with IL-17F was less than 10 µM throughout.

In the case of `CC(O)CC(=O)N1CCC(CN2CCc3cc(-c4cn[nH]c4)ccc32)CC1` (stereo not drawn) [Example 72, 1-(4-((5-(1H-pyrazol-4-yl)indolin-1-yl)methyl)piperidin-1-yl)-3-hydroxybutan-1-one], the IC50 in the test on IL-21, with IL-17A and in the test on IL-17F was more than 10 µM throughout.

With `CC(C)CNC(=O)N1CCC(CN2CCc3cc(-c4cn[nH]c4)ccc32)CC1` [Example 74C, 4-((5-(1H-pyrazol-4-yl)indolin-1-yl)methyl)-N-isobutylpiperidine-1-carboxamide], the values for the IC50 in the test with IL-21, in the test on IL-17A and in the test on IL-17F were more than 10 µM, less than 10 µM and more than 10 µM, respectively.

`CC(C)CNC(=O)N1CCC(CN2CCc3cc(-c4cnn(C(=O)NCC(C)C)c4)ccc32)CC1` [Example 74D, N-isobutyl-4-((5-(1-(isobutylcarbamoyl)-1H-pyrazol-4-yl)indolin-1-yl)methyl)piperidine-1-carboxamide]: the IC50 in the test on IL-21, with IL-17A and in the test with IL-17F was less than 10 µM in each case.

In the case of `O=C(NCc1ccccc1)N1CCC(CN2CCc3cc(-c4cn[nH]c4)ccc32)CC1` [Example 76, 4-((5-(1H-pyrazol-4-yl)indolin-1-yl)methyl)-N-benzylpiperidine-1-carboxamide], the IC50 with IL-21, with IL-17A and with IL-17F was less than 10 µM each time.

Regarding `O=C(CCc1ccccc1)N1CCC(Cn2ccc3cc(-c4cn[nH]c4)ccc32)CC1` [Example 79, 1-(4-((5-(1H-pyrazol-4-yl)-1H-indol-1-yl)methyl)piperidin-1-yl)-3-phenylpropan-1-one], the IC50 in the test on IL-21, with IL-17A and with IL-17F was less than 10 µM throughout.

With `O=C(Cc1ccccc1)N1CCC(Cn2ccc3cc(-c4cn[nH]c4)ccc32)CC1` [Example 88, 1-(4-((5-(1H-pyrazol-4-yl)-1H-indol-1-yl)methyl)piperidin-1-yl)-2-phenylethanone], the IC50 in the test on IL-21, in the test on IL-17A and with IL-17F was less than 10 µM each time.

As to `O=C(CCCc1ccccc1)N1CCC(Cn2ccc3cc(-c4cn[nH]c4)ccc32)CC1` [Example 89, 1-(4-((5-(1H-pyrazol-4-yl)-1H-indol-1-yl)methyl)piperidin-1-yl)-4-phenylbutan-1-one], the IC50 in the test with IL-21, in the test with IL-17A and in the test on IL-17F was less than 10 µM in each case.

Regarding `O=C(CCc1cnccn1)N1CCC(Cn2ccc3cc(-c4cn[nH]c4)ccc32)CC1` [Example 90, 1-(4-((5-(1H-pyrazol-4-yl)-1H-indol-1-yl)methyl)piperidin-1-yl)-3-(pyrazin-2-yl)propan-1-one], the IC50 in the test with IL-21 was less than 10 µM; in the test with IL-17A it was more than 10 µM; with IL-17F it was less than 10 µM.

As to `O=C(CCc1ccccn1)N1CCC(Cn2ccc3cc(-c4cn[nH]c4)ccc32)CC1` [Example 91, 1-(4-((5-(1H-pyrazol-4-yl)-1H-indol-1-yl)methyl)piperidin-1-yl)-3-(pyridin-2-yl)propan-1-one], the IC50 in the test with IL-21, with IL-17A and in the test with IL-17F was less than 10 µM in each case.

As to `O=C(COc1ccccc1)N1CCC(Cn2ccc3cc(-c4cn[nH]c4)ccc32)CC1` [Example 92, 1-(4-((5-(1H-pyrazol-4-yl)-1H-indol-1-yl)methyl)piperidin-1-yl)-2-phenoxyethanone], the IC50 with IL-21, in the test on IL-17A and in the test on IL-17F was less than 10 µM each time.

Turning to `O=C(CCc1ccc(F)cc1)N1CCC(Cn2ccc3cc(-c4cn[nH]c4)ccc32)CC1` [Example 93, 1-(4-((5-(1H-pyrazol-4-yl)-1H-indol-1-yl)methyl)piperidin-1-yl)-3-(4-fluorophenyl)propan-1-one], the IC50 with IL-21, with IL-17A and with IL-17F was less than 10 µM throughout.
